For test [1], the target named is T1, HCV polymerase (NS5B) type 1a (Hepatitis C virus genotype 1a, UniProt P26664).
T1 construct: made in house; host or cells: Escherichia coli (by the 'similar method' of the 1b enzyme)
The test can be described thus: Assay of enzyme (HCV polymerase) inhibitory activity, type 1a enzyme. It counts as biochemical, HCV type 1a (cloned from the blood of patients). The essentials: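 NS5B Δ47 C-term His6 (type 1a, 1.5 μg/ml); substrate RNA 5 μg/ml; ATP/GTP/CTP 50 μM, UTP 2 μM + [5,6-3H]UTP; Tris pH 7.5, MgCl2 5 mM; 25° C, 60 min. TCA/pyrophosphate stop, GF/B filter, scintillation. IC50 vs no-compound control.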

For test [2], the target named is T2, HCV polymerase (NS5B) type 1b (Hepatitis C virus genotype 1b, UniProt P26663).
T2 construct: a region encoding NS5B (J Virol 1991 March, 65(3), 1105-13, 544 amino acids after deletion of 47 amino acids on the C-terminal); 6xHis (C); made in house; host or cells: Escherichia coli
Briefly: Assay of enzyme (HCV polymerase) inhibitory activity, type 1b enzyme. It counts as biochemical, HCV BK strain (type 1b). The essentials: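 Rxn: NS5B 1b (BK, ΔC47, His6) 0.5 μg/ml; substrate RNA 5 μg/ml; ATP/GTP/CTP 50 μM, UTP 2 μM + [5,6-3H]UTP; 20 mM Tris pH 7.5, 5 mM MgCl2, 50 mM NaCl, 1 mM EDTA/DTT. 25 °C, 60 min. Stop with TCA/pyrophosphate, filter, scintillation count; IC50 vs. untreated.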

Setting [3] is: HCV polymerase inhibitory activity IC50, 1a, type 1a enzyme.
[4] abbreviates: HCV polymerase inhibitory activity IC50, 1b, type 1b enzyme.
The mark [5] stands for this setting: HCV polymerase inhibitory activity (IC50), 1a, type 1a enzyme 1.5 μg/ml, 25° C., 60 min.
Setting [6] is: HCV polymerase inhibitory activity (IC50), 1b, type 1b enzyme 0.5 μg/ml, 25° C., 60 min.

Our source for the IC50 values is patent US8017612B2, “Piperazine compound and use thereof as a HCV polymerase inhibitor” (priority 2006, dated 2011).

For orientation: IC50 means the concentration needed to halve the response being measured. Higher therefore signals lower potency. Consider `O=C(NCc1ccc(OC(F)F)cc1)[C@H]1CN(c2nc3nc(Cl)ncc3s2)CCN1S(=O)(=O)c1ccc(OC(F)(F)F)cc1` [Example 931, (R)-4-(5-chloro-thiazolo[4,5-d]pyrimidin-2-yl)-1-(4-trifluoromethoxy-benzenesulfonyl)-piperazine-2-carboxylic acid 4-difluoromethoxy-benzylamide], for which the IC50 in test [1] (setting [3]) and in test [2] (setting [4]) was below 0.1 µM each time.

Turning to `CCCc1ccc(CNC(=O)[C@H]2CN(C(=O)Cn3nnc(C)n3)CCN2S(=O)(=O)c2ccc(OC(F)(F)F)cc2)cc1` [Example 457, (R)-4-[2-(5-methyl-tetrazol-2-yl)-acetyl]-1-(4-trifluoromethoxy-benzenesulfonyl)-piperazine-2-carboxylic acid 4-propyl-benzylamide], the concentration for half-maximal inhibition (IC50) in test [1] (setting [5]) and in test [2] (setting [6]) was below 0.1 µM throughout.

For `CCCc1ccc(CNC(=O)[C@H]2CN(c3nc4cn[nH]c(=O)c4s3)CCN2S(=O)(=O)c2ccc(CC)cc2)cc1` [Example 812, (R)-1-(4-ethyl-benzenesulfonyl)-4-(7-oxo-6,7-dihydro-thiazolo[4,5-d]pyridazin-2-yl)-piperazine-2-carboxylic acid 4-propyl-benzylamide], the IC50 in test [1] (setting [3]) and in test [2] (setting [4]) was below 0.1 µM throughout.

With `O=C(NCc1c(Cl)cc(Cl)cc1Cl)[C@H]1CN(c2cnc3cncnc3n2)CCN1S(=O)(=O)c1ccc(OC(F)(F)F)cc1` [Example 797, (R)-4-pteridin-7-yl-1-(4-trifluoromethoxy-benzenesulfonyl)-piperazine-2-carboxylic acid 2,4,6-trichloro-benzylamide], the IC50 in test [1] (setting [3]) and in test [2] (setting [4]) was below 0.1 µM in each case.

Turning to `CC(=O)N1CCN(S(=O)(=O)c2ccc(Br)s2)C(C(=O)NCc2ccc(C(F)(F)F)cc2)C1` (centres unmarked) [Example 23, 4-acetyl-1-(5-bromo-thiophene-2-sulfonyl)-piperazine-2-carboxylic acid 4-trifluoromethyl-benzylamide], the IC50 in test [1] (setting [5]) and in test [2] (setting [6]) was above 1 µM in each case.

Take `O=C(NCc1ccc2ccccc2c1)[C@H]1CN(c2nc3cn[nH]c(=O)c3s2)CCN1S(=O)(=O)c1ccc(OC(F)(F)F)cc1` [Example 901, (R)-4-(7-oxo-6,7-dihydro-thiazolo[4,5-d]pyridazin-2-yl)-1-(4-trifluoromethoxy-benzenesulfonyl)-piperazine-2-carboxylic acid (naphthalen-2-ylmethyl)-amide]: the IC50 in test [1] (setting [3]) and in test [2] (setting [4]) was below 0.1 µM each time.

In the case of `CC(C)c1ccc(S(=O)(=O)N2CCN(C(N)=O)CC2C(=O)NCc2ccc(C(F)(F)F)cc2)cc1` (centres unmarked) [Example 350, 4-(4-isopropyl-benzenesulfonyl)-piperazine-1,3-dicarboxylic acid 1-amide 3-(4-trifluoromethyl-benzylamide)], the IC50 in test [1] (setting [5]) and in test [2] (setting [6]) was above 1 µM in each case.

With `CC(C)c1ccc(CNC(=O)[C@H]2CN(C(=O)Nc3cccc(C(=O)O)c3)CCN2S(=O)(=O)c2ccc(C(F)(F)F)cc2)cc1` [Example 286, 3-{[(R)-3-(4-isopropyl-benzylcarbamoyl)-4-(4-trifluoromethyl-benzenesulfonyl)-piperazine-1-carbonyl]-amino}-benzoic acid], the IC50 in test [1] (setting [5]) and in test [2] (setting [6]) was 0.1 to 1 µM throughout.

For the molecule `CCCc1ccc(CNC(=O)[C@H]2CN(c3cnc4cncc(C(=O)O)c4n3)CCN2S(=O)(=O)c2ccc(OC(F)(F)F)cc2)cc1` [Example 824, 2-[(R)-3-(4-propyl-benzylcarbamoyl)-4-(4-trifluoromethoxy-benzenesulfonyl)-piperazin-1-yl]-pyrido[3,4-b]pyrazine-8-carboxylic acid], the concentration for half-maximal inhibition (IC50) in test [1] (setting [3]) and in test [2] (setting [4]) was below 0.1 µM each time.

On to `O=C(NCc1ccc(OC(F)F)cc1)[C@H]1CN(c2nn3ccc(=O)nc3s2)CCN1S(=O)(=O)c1ccc(OC(F)(F)F)cc1` [Example 1053, (R)-4-(7-oxo-7H-[1,3,4]thiadiazolo[3,2-a]pyrimidin-2-yl)-1-(4-trifluoromethoxy-benzenesulfonyl)-piperazine-2-carboxylic acid 4-difluoromethoxy-benzylamide], for which the IC50 in test [1] (setting [3]) and in test [2] (setting [4]) was below 0.1 µM in each case.

Regarding `CCC(F)(F)c1ccc(CNC(=O)[C@H]2CN(C(=O)CC(=O)O)CCN2S(=O)(=O)c2ccc(OC(F)(F)F)cc2)cc1` [Example 678, 3-[(R)-3-[4-(1,1-difluoro-propyl)-benzylcarbamoyl]-4-(4-trifluoromethoxy-benzenesulfonyl)-piperazin-1-yl]-3-oxo-propionic acid], the IC50 in test [1] (setting [3]) and in test [2] (setting [4]) was above 1 µM in each case.

Regarding `CC(C)c1ccc(CNC(=O)[C@H]2CN(C(=O)Nc3ccc(C(=O)O)cc3)CCN2S(=O)(=O)c2ccc(C(F)(F)F)cc2)cc1` [Example 285, 4-{[(R)-3-(4-isopropyl-benzylcarbamoyl)-4-(4-trifluoromethyl-benzenesulfonyl)-piperazine-1-carbonyl]-amino}-benzoic acid], the IC50 in test [1] (setting [5]) is 0.1 to 1 µM; in test [2] (setting [6]), below 0.1 µM.

Turning to `O=C(NCc1ccc(OC(F)(F)F)cc1)[C@H]1CN(c2nc3c(Cl)nncc3s2)CCN1S(=O)(=O)c1ccc(OC(F)(F)F)cc1` [Example 985, (R)-4-(4-chloro-thiazolo[4,5-d]pyridazin-2-yl)-1-(4-trifluoromethoxy-benzenesulfonyl)-piperazine-2-carboxylic acid 4-trifluoromethoxy-benzylamide], the IC50 in test [1] (setting [3]) and in test [2] (setting [4]) was below 0.1 µM in each case.

As to `CC(=O)N1CCN(S(=O)(=O)c2ccc(I)cc2)C(C(=O)NCc2ccc(N(C)C)cc2)C1` (centres unmarked) [Example 85, 4-acetyl-1-(4-iodo-benzenesulfonyl)-piperazine-2-carboxylic acid 4-dimethylamino-benzylamide], the IC50 in test [1] (setting [5]) is 0.1 to 1 µM; in test [2] (setting [6]) it was above 1 µM.

`COc1ccc(S(=O)(=O)N2CCN(C(C)=O)C[C@@H]2C(=O)NCc2ccc(C(C)C)cc2)cc1CC(=O)O` [Example 221, {5-[(R)-4-acetyl-2-(4-isopropyl-benzylcarbamoyl)-piperazine-1-sulfonyl]-2-methoxy-phenyl}-acetic acid]: the IC50 in test [1] (setting [5]) and in test [2] (setting [6]) was above 1 µM throughout.

With `CCC(F)(F)c1ccc(CNC(=O)[C@H]2CN(c3cnc4cncnc4n3)CCN2S(=O)(=O)c2ccc(OC(F)(F)F)cc2)cc1` [Example 615, (R)-4-pteridin-7-yl-1-(4-trifluoromethoxy-benzenesulfonyl)-piperazine-2-carboxylic acid 4-(1,1-difluoro-propyl)-benzylamide], the IC50 in test [1] (setting [5]) and in test [2] (setting [6]) was below 0.1 µM each time.

For the molecule `CC(=O)N1CCN(S(=O)(=O)c2cccc(Cl)c2)C(C(=O)NCc2ccc(C(F)(F)F)cc2)C1` (centres unmarked) [Example 29, 4-acetyl-1-(3-chloro-benzenesulfonyl)-piperazine-2-carboxylic acid 4-trifluoromethyl-benzylamide], the IC50 in test [1] (setting [5]) and in test [2] (setting [6]) was above 1 µM throughout.

For `CCC(F)(F)c1ccc(CNC(=O)[C@H]2CN(C(=O)c3cscn3)CCN2S(=O)(=O)c2ccc(OC(F)(F)F)cc2)cc1` [Example 520, (R)-4-(thiazole-4-carbonyl)-1-(4-trifluoromethoxy-benzenesulfonyl)-piperazine-2-carboxylic acid 4-(1,1-difluoro-propyl)-benzylamide], the IC50 in test [1] (setting [5]) is above 1 µM; in test [2] (setting [6]), 0.1 to 1 µM.

As for `O=C(NCc1ccc(C2CC2)cc1)[C@H]1CN(c2nc3nc(Cl)ncc3s2)CCN1S(=O)(=O)c1ccc(OC(F)(F)F)cc1` [Example 971, (R)-4-(5-chloro-thiazolo[4,5-d]pyrimidin-2-yl)-1-(4-trifluoromethoxy-benzenesulfonyl)-piperazine-2-carboxylic acid 4-cyclopropyl-benzylamide], the IC50 in test [1] (setting [3]) and in test [2] (setting [4]) was below 0.1 µM each time.

`CCCc1ccc(CNC(=O)[C@H]2CN(c3cnc4cncnc4n3)CCN2S(=O)(=O)c2ccc(OC(F)(F)F)cc2)cc1N` [Example 722, (R)-4-pteridin-7-yl-1-(4-trifluoromethoxy-benzenesulfonyl)-piperazine-2-carboxylic acid 3-amino-4-propyl-benzylamide]: the figures for the IC50 in test [1] (setting [3]) and in test [2] (setting [4]) were 0.1 to 1 µM and below 0.1 µM, respectively.

As to `CCCc1ccc(CNC(=O)[C@H]2CN(C(=O)Nc3ccccc3OCc3ccccc3)CCN2S(=O)(=O)c2ccc(OC(F)(F)F)cc2)cc1` [Example 833, (R)-4-(4-trifluoromethoxy-benzenesulfonyl)-piperazine-1,3-dicarboxylic acid 1-[(2-benzyloxy-phenyl)-amide] 3-(4-propyl-benzylamide)], the concentration for half-maximal inhibition (IC50) in test [1] (setting [3]) and in test [2] (setting [4]) was above 1 µM each time.

Regarding `COc1ccc(S(=O)(=O)N2CCN(C(C)=O)C[C@@H]2C(=O)NCc2ccc(C(C)C)cc2)cc1Cl` [Example 216, (R)-4-acetyl-1-(3-chloro-4-methoxy-benzenesulfonyl)-piperazine-2-carboxylic acid 4-isopropyl-benzylamide], the IC50 in test [1] (setting [5]) and in test [2] (setting [6]) was 0.1 to 1 µM each time.
